Test results as given in PubChem BioAssay AID1259407 (Chemical Carcinogenesis Research Information System (CCRIS), 2018).
Calls of active or inactive are those of the source. How the calls were made is not given here.

Tested on: CCRIS mutagenicity, Ames/micronucleus/aberration tests
Test: CCRIS mutagenicity studies
[1] = Test System: AMES SALMONELLA TYPHIMURIUM, Strain/Indicator: TA98, Metabolic Activation: S-9, Method: STANDARD PLATE
[2] = Test System: AMES SALMONELLA TYPHIMURIUM, Strain/Indicator: TA100, Metabolic Activation: NONE, Method: STANDARD PLATE
[3] = Test System: AMES SALMONELLA TYPHIMURIUM, Strain/Indicator: TA100, Metabolic Activation: S-9, Method: STANDARD PLATE

COc1cc(Oc2ccc(Cl)cc2Cl)ccc1[N+](=O)[O-]
mutagenic call [1]: inactive; negative | mutagenic call [2]: active; positive | mutagenic call [3]: inactive; negative | mutagenic call (Test System: AMES SALMONELLA TYPHIMURIUM, Strain/Indicator: TA100, Metabolic Activation: S-9 MIX, Method: STANDARD PLATE): inactive; negative | mutagenic call (Test System: AMES SALMONELLA TYPHIMURIUM, Strain/Indicator: YG1021, Metabolic Activation: NONE, Method: PREINCUBATION): active; positive | mutagenic call (Test System: AMES SALMONELLA TYPHIMURIUM, Strain/Indicator: YG1021, Metabolic Activation: RAT, LIVER, S-9, PCB, Method: PREINCUBATION): active; positive | mutagenic call (Test System: AMES SALMONELLA TYPHIMURIUM, Strain/Indicator: YG1021, Metabolic Activation: S-9, Method: STANDARD PLATE): inactive; negative | mutagenic call (Test System: AMES SALMONELLA TYPHIMURIUM, Strain/Indicator: YG1024, Metabolic Activation: S-9, Method: STANDARD PLATE): inactive; negative | mutagenic call (Test System: AMES SALMONELLA TYPHIMURIUM, Strain/Indicator: YG1026, Metabolic Activation: NONE, Method: PREINCUBATION): active; positive | mutagenic call (Test System: AMES SALMONELLA TYPHIMURIUM, Strain/Indicator: YG1026, Metabolic Activation: RAT, LIVER, S-9, PCB, Method: PREINCUBATION): active; positive | mutagenic call (Test System: AMES SALMONELLA TYPHIMURIUM, Strain/Indicator: YG1026, Metabolic Activation: S-9, Method: STANDARD PLATE): inactive; negative | mutagenic call (Test System: AMES SALMONELLA TYPHIMURIUM, Strain/Indicator: YG1029, Metabolic Activation: S-9, Method: STANDARD PLATE): inactive; negative

Oc1ccc2sc3ccccc3c2c1
mutagenic call (Test System: CHINESE HAMSTER OVARY, Strain/Indicator: CHO-K1-BH4 (HGPRT)/6-THIOGUANINE, Metabolic Activation: RAT, LIVER, S-9, AROCLOR (4%)): active; positive

CCCCCCNC(=O)n1cc(F)c(=O)[nH]c1=O
mutagenic call [1]: inactive; negative | mutagenic call [2]: inactive; negative | mutagenic call [3]: inactive; negative | mutagenic call (Test System: AMES SALMONELLA TYPHIMURIUM, Strain/Indicator: TA102, Metabolic Activation: NONE, Method: STANDARD PLATE): inactive; negative | mutagenic call (Test System: AMES SALMONELLA TYPHIMURIUM, Strain/Indicator: TA1537, Metabolic Activation: NONE, Method: STANDARD PLATE): inactive; negative | mutagenic call (Test System: AMES SALMONELLA TYPHIMURIUM, Strain/Indicator: TA1537, Metabolic Activation: S-9, Method: STANDARD PLATE): inactive; negative | mutagenic call (Test System: E. COLI, Strain/Indicator: WP2 (HCR), Metabolic Activation: NONE, Method: STANDARD PLATE): inactive; negative | mutagenic call (Test System: E. COLI, Strain/Indicator: WP2 (HCR), Metabolic Activation: S-9, Method: STANDARD PLATE): inactive; negative

BrCc1cccc2c1-c1cccc3cccc-2c13
mutagenic call (Test System: AMES SALMONELLA TYPHIMURIUM, Strain/Indicator: TA98, Metabolic Activation: NONE, Method: STANDARD PLATE): active; positive | mutagenic call [2]: active; positive

[O]=[Mo](=[O])=[O]
mutagenic call (Test System: AMES SALMONELLA TYPHIMURIUM, Strain/Indicator: TA97, Metabolic Activation: HAMSTER, LIVER, S-9, AROCLOR 1254 (10%), Method: PREINCUBATION): inactive; negative | mutagenic call (Test System: AMES SALMONELLA TYPHIMURIUM, Strain/Indicator: TA97, Metabolic Activation: HAMSTER, LIVER, S-9, AROCLOR 1254 (30%), Method: PREINCUBATION): inactive; negative | mutagenic call (Test System: AMES SALMONELLA TYPHIMURIUM, Strain/Indicator: TA97, Metabolic Activation: NONE, Method: PREINCUBATION): inactive; negative | mutagenic call (Test System: AMES SALMONELLA TYPHIMURIUM, Strain/Indicator: TA97, Metabolic Activation: RAT, LIVER, S-9, AROCLOR 1254 (10%), Method: PREINCUBATION): inactive; negative | mutagenic call (Test System: AMES SALMONELLA TYPHIMURIUM, Strain/Indicator: TA97, Metabolic Activation: RAT, LIVER, S-9, AROCLOR 1254 (30%), Method: PREINCUBATION): inactive; negative | mutagenic call (Test System: AMES SALMONELLA TYPHIMURIUM, Strain/Indicator: TA98, Metabolic Activation: HAMSTER, LIVER, S-9, AROCLOR 1254 (10 OR 30%), Method: PREINCUBATION): inactive; negative | mutagenic call (Test System: AMES SALMONELLA TYPHIMURIUM, Strain/Indicator: TA98, Metabolic Activation: NONE, Method: PREINCUBATION): inactive; negative | mutagenic call (Test System: AMES SALMONELLA TYPHIMURIUM, Strain/Indicator: TA98, Metabolic Activation: RAT, LIVER, S-9, AROCLOR 1254 (10 OR 30%), Method: PREINCUBATION): inactive; negative | mutagenic call (Test System: AMES SALMONELLA TYPHIMURIUM, Strain/Indicator: TA100, Metabolic Activation: HAMSTER, LIVER, S-9, AROCLOR 1254 (10% OR 30%), Method: PREINCUBATION): inactive; negative | mutagenic call (Test System: AMES SALMONELLA TYPHIMURIUM, Strain/Indicator: TA100, Metabolic Activation: NONE, Method: PREINCUBATION): inactive; negative | mutagenic call (Test System: AMES SALMONELLA TYPHIMURIUM, Strain/Indicator: TA100, Metabolic Activation: RAT, LIVER, S-9, AROCLOR 1254 (10% OR 30%), Method: PREINCUBATION): inactive; negative | mutagenic call (Test System: AMES SALMONELLA TYPHIMURIUM, Strain/Indicator: TA1535, Metabolic Activation: HAMSTER, LIVER, S-9, AROCLOR 1254 (10%), Method: PREINCUBATION): inactive; negative | mutagenic call (Test System: AMES SALMONELLA TYPHIMURIUM, Strain/Indicator: TA1535, Metabolic Activation: HAMSTER, LIVER, S-9, AROCLOR 1254 (30%), Method: PREINCUBATION): inactive; negative | mutagenic call (Test System: AMES SALMONELLA TYPHIMURIUM, Strain/Indicator: TA1535, Metabolic Activation: NONE, Method: PREINCUBATION): inactive; negative | mutagenic call (Test System: AMES SALMONELLA TYPHIMURIUM, Strain/Indicator: TA1535, Metabolic Activation: RAT, LIVER, S-9, AROCLOR 1254 (10%), Method: PREINCUBATION): inactive; negative | mutagenic call (Test System: AMES SALMONELLA TYPHIMURIUM, Strain/Indicator: TA1535, Metabolic Activation: RAT, LIVER, S-9, AROCLOR 1254 (30%), Method: PREINCUBATION): inactive; negative | mutagenic call (Test System: AMES SALMONELLA TYPHIMURIUM, Strain/Indicator: TA1537, Metabolic Activation: HAMSTER, LIVER, S-9, AROCLOR 1254 (30%), Method: PREINCUBATION): inactive; negative | mutagenic call (Test System: AMES SALMONELLA TYPHIMURIUM, Strain/Indicator: TA1537, Metabolic Activation: NONE, Method: PREINCUBATION): inactive; negative | mutagenic call (Test System: AMES SALMONELLA TYPHIMURIUM, Strain/Indicator: TA1537, Metabolic Activation: RAT, LIVER, S-9, AROCLOR 1254 (30%), Method: PREINCUBATION): inactive; negative | mutagenic call (Test System: MOUSE LYMPHOMA, Strain/Indicator: L5178Y (TK+/TK-), Metabolic Activation: RAT, LIVER, S-9, AROCLOR 1254, Method: SUSPENSION/PLATE): active; positive. reevaluation of results: positive | mutagenic call (Test System: Mouse lymphoma, Strain/Indicator: L5178Y (tk+/tk-), Metabolic Activation: None, Method: Suspension/plate): inactive; inconclusive (previous evaluation negative)
